# Laboratory results taken from patent US10562890B2, “Cancer therapeutics” (UNIVERSITY OF VIRGINIA PATENT FOUNDATION, priority 2014, dated 2020).
# Key:
# [1] = test system: OVCAR4 ovarian cancer cells; assay: CellTiter-Glo viability assay, OVCAR4; assay type: cell-based; settings: Homo sapiens, OVCAR-4, OVCAR4, 72 hours
# Experimental: (§1) OVCAR8 cells were grown in RPMI 1640 supplemented with 10% Fetal bovine serum and 1% antibiotics. OVCAR4 cells were grown in RPMI 1640 supplemented with 20% fetal bovine serum and 1% antibiotics. Cells growing at approximately 70% confluency were trypsinized and 2500 cells per well were re-plated in opaque bottomed 96-well plates.
# (§2) 24 hours after plating, chemical compounds diluted in DMSO were mixed with cell growth media and added to cells. Compounds mixed with media were made at 10× concentration. Cells treated with compounds were incubated for 72 hours in a humidified incubator at 37° C. supplemented with 5% CO2. Percentage of cells viable after 72 hours was determined by CellTitler-Glo according to the manufacturer's instructions. Data analysis was performed using GraphPad 5.0.
# (§3) In the graph, the ordinate represents % inhibition and the abscissa represents the log value of the concentration of the compound.
# [2] = test system: 11 leukemia cell lines; assay: Viability of a panel of 11 leukemia cell lines; assay type: cell-based; settings: 48 hours of treatment
# Text: Compounds Al-4-88, Al-4-57, Al-10-47, Al-10-104, and Al-14-91 were screened against a panel of 11 leukemia cell lines with varying genotypes.
# The viability is represented as the percent DAPI negative cells relative to DMSO control. Each symbol/color in the graphs of FIG. 4 represent an individual cell line. The symbol represents the mean of independent replicates and the error bars represent the SEM. The table indicates the morphology, type of leukemia, and known mutations for each of the 11 cell lines.
# [3] = test system: inducible Runx1 (iRx) ES cells; assay: Inducible Runx1 (iRx) ES cell differentiation system, FACS; assay type: cell-based
# Experimental: FIG. 3A is a schematic diagram representing the inducible Runx1 (iRx) ES cell differentiation system. ES cells were allowed to form embryoid bodies (EB) in IVD culture media and hemangioblast Flk1 positive cells were sorted and seeded into blast culture media. After 2 days, a second Flk1 sort was performed and Flk1 positive cells were cultured in hemogenic endothelium culture conditions. In the absence of doxycycline (−dox), Runx1 is absent and cells cannot progress from the HE1 stage of development. In the presence of doxycycline (+dox), Runx1 is expressed and differentiation progresses, resulting in the formation of CD41+ve/c-kit+ve floating progenitors.
# FIG. 3C provides representative FACS histograms showing staining of the surface markers CD41 and c-kit in cells treated with the compounds and in the presence or absence of doxycycline, as indicated.
# FIG. 3D provides representative FACS histograms showing staining of Annexin V and Propidium Iodide (PI) in cells treated with compounds Al-10-104 and Al-4-88 in the absence or presence of doxycycline, as indicated.
# [4] = test system: OVCAR8 ovarian cancer cells; assay: CellTiter-Glo viability assay, OVCAR8; assay type: cell-based; settings: Homo sapiens, OVCAR-8, OVCAR8, 72 hours
# Experimental: as §1, §2, §3
# [5] = test system: lung cancer cell lines; assay: MTT growth assay, several lung cancer cell lines; assay type: cell-based
# Experimental: Activity of Al-10-104 was tested using several lung cancer cell lines and one immortalized, non-transformed lung cell line. […] Data for the squamous cell carcinoma of the lung cell line H520 and the immortalized normal lung epithelial cell line BEAS-2B are shown in FIG. 10.
# [6] = test system: MCF10A-5E cells; assay: Multiacini formation in 3D culture of MCF10A-5E cells; assay type: cell-based; settings: shRUNX1 or control cells, 3D culture 10-11 days, compared to carrier control or Al-4-88
# Text: CBFβ inhibitors altered acinar morphogenesis of the basal-like (triple negative) breast epithelial cells and blocked survival of basal-like breast cancer cells in 3D organotypic culture. To evaluate whether CBFβ inhibition would influence the multicellular organization of basal-like breast epithelia, 3D culture of MCF10A-5E cells was used. Knockdown of RUNX1 in these cells delayed proliferation arrest and promoted the formation of nonspherical acini, indicating a role for RUNX1 during morphogenesis.
# The multiacini resulting from CBFβ inhibition were not radially symmetric, thereby arguing against a general defect in cell polarity or proliferation arrest. Instead, the inhibitors appeared to be initiating a nascent branching program that is reminiscent of when TGFβ-family signaling is impaired.
# FIG. 9A: MCF10A-5E cells stably expressing shRUNX1 or shGFP control were grown in 3D culture for 10-11 days with the indicated compounds and imaged by Brightfield microscopy. The total number of multiacini per chamber was counted and scaled to the shGFP DMSO control. Data are shown as the mean±SEM of eight independent cultures.
# [7] = test system: T-ALL cell lines; assay: Apoptosis in T-ALL cell lines; assay type: cell-based, human
# [8] = test system: MLL-AF4 leukemia cells; assay: Cell death of MLL-AF4 leukemia cells; assay type: cell-based, human
# [9] = Aqueous solubility in 0.25% DMSO by NMR spectroscopy; assay type: physicochemical; settings: aqueous, kinetic from dmso stock; 0.25% DMSO, NMR spectroscopy; read-out: aqueous solubility
# Experimental: Al-10-104, Al-12-126, and Al-14-91 were all soluble at concentrations above 100 μM. […] As the Runt domain is highly conserved among all three RUNX family members, we would expect to see similar effects on binding to RUNX2 or RUNX3. Therefore, the action of the inhibitors will likely affect the activity of all three RUNX family members.
# [10] = target: CBFβ binding to the RUNX1 Runt domain (Homo sapiens (Human), UniProt Q13951); assay: FRET assay, inhibition of CBFβ binding to the RUNX1 Runt domain; settings: inhibition of wild-type CBFβ binding to the RUNX1 Runt domain; NA = not active
# Text: Fluorescence Resonance Energy Transfer (FRET) Assay:
# As described in U.S. Pat. No. 8,748,618 and published PCT application WO2010/132684, a FRET assay can be used to effectively monitor the inhibition of CBF binding to the Runt domain of RUNX proteins (as well as for CBFβ-SMMHC binding to the Runt domain of RUNX proteins). For the assay, the green fluorescent protein derivative Cerulean is fused to the N-terminus of the Runt domain and the green fluorescent protein derivative Venus to the N-terminus of CBFβ (Gorczynski, M. J., J. Grembecka, et al. (2007), “Allosteric inhibition of the protein-protein interaction between the leukemia-associated proteins Runx1 and CBFbeta.” Chem Biol 14(10): 1186-97), or to CBFβ-SMMHC (Illendula, A. et al. Chemical biology. A small-molecule inhibitor of the aberrant transcription factor CBFbeta-SMMHC delays leukemia in mice. Science 347, 779-784, doi:10.1126/science.aaa0314 (2015)). The ratio of the emission intensities at 525 nm and 474 nm, measured after excitation at 433 nm, was used as the readout in this assay. The dynamic range for the FRET assay was determined by adding a 30-fold excess of untagged CBFβ (or CBFβ-SMMHC) to the assay and the associated change in the FRET ratio was defined as 100% inhibition.
# [11] = test system: T-ALL cell lines Jurkat, HBP-ALL, Loucy, and KOPTK1; assay: Proliferation of T-ALL cell lines; assay type: cell-based, human
# Sequence of CBFβ binding to the RUNX1 Runt domain (Q13951 1-141): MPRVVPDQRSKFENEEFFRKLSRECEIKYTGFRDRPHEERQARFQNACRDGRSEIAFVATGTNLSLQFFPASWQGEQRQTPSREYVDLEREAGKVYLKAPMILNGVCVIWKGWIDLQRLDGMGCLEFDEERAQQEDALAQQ
compound,measurement,setting,value
COc1cccnc1-c1nc2cc(OC(F)(F)F)ccc2[nH]1 [Al-10-104],IC50,[1],5.86 µM
same,percent viability (DAPI negative cells relative to DMSO),[2],significant inhibition of the majority of the cell lines
same,percentage of cells expressing c-kit and CD41,"[3]; 10 μM, in the presence of doxycycline",reduced
same,apoptosis (Annexin V and PI staining),"[3]; adherent cells, absence or presence of doxycycline",apoptosis is not increased
same,IC50,[4],4.84 µM
same,growth inhibition (MTT assay),[5],growth inhibition
same,formation of multiacinar structures,[6],dramatic increase
same,apoptosis,[7],induced apoptosis
same,cell death,[8],induced cell death
same,solubility,[9],> 100 µM
same,IC50,[10],2.65 ± 0.18 µM
same,proliferation,[11],inhibited proliferation
